“And” between values parts separate entries of the source, which are not always exact repeats. Equal values may be shown once. Read-outs that look alike come from different tables or passages of the source.
What was measured:
[1] = tested on: hydroxyproline; assay: Bleomycin IPF model: hydroxyproline content in lung lysates; assay type: in vivo, C57BI/6J mice; design: Hydroxyproline Levels, Mean: unit not given here
Experimental: Male C57BI/6J mice, aged 12 weeks with an approximate weight of 25-30 g were obtained from Jackson Laboratories (Bar Harbor, ME). Animals were acclimated for two weeks prior to study initiation, and were randomized into the experimental groups outlined in Table 32.
Intratracheal (IT) administration of Bleo or PBS control was conducted at the start of the study (Day 0). […] Animals were weighed on Day 0, and indexed boluses of PBS control (Group 1) or Bleo (Groups 2-6) were delivered by IT administration.
Following administration of Bleo, animals (n=10/group) were included in the study if they met the following guidelines on Day 7: (1) a predictable 5% loss in body weight, and (2) the presence of fibrotic pulmonary lesions, detected by micro-CT imaging. 10 animals from Group 1 additionally proceeded as controls. Animals that continued in the study on Day 7 received an oral gavage (OG) administration of PBS, Compound A (1 mg/kg, 3 mg/kg, 10 mg/kg), or Pirfenidone (300 mg/kg), as outlined in Table 31 in 25 μL boluses every other day (QOD), starting on Day 7. Compound A was formulated in 5% (v/v) DMSO/15% (v/v) PEG 400/80% (v/v) E-TPGS in purified water.
Animals were euthanized on Day 21 following Micro-CT imaging, and the right lung was collected for biochemical analysis, and the left lung was inflation-fixed for morphological assessments. A resection of the right lung was weighed and homogenized to determine total hydroxyproline levels by colorimetric assay, and the remaining lung lysate was saved for future analyses.

[2] = Dog PK study #2 (Compound A IV, HPBCD formulation); assay type: in vivo, beagle dogs
Experimental: For Dog PK study #2, a solution of Compound A was prepared in HPBCD (20% solution w/v)/DMSO (99/1) with a concentration of 0.5 mg/mL (Table 2B). The Compound A solution was administered to animals intravenously (IV), and animals were monitored over a 24 h period (Table 3C). Body weight was recorded prior to dosing, and detailed clinical observations were made prior to dosing and throughout the study, as needed.
Blood samples (~0.3 mL) were collected according to a schedule (shown below) by venipuncture of peripheral veins except for the dosing vein, and EDTA-K2 was used as anticoagulant. Within 30 minutes of collection, the samples were centrifuged at approximately 2000 times g-force for 10 minutes at 4° C. to obtain blood plasma. The plasma samples were immediately divided into two aliquots (~75 μL each), transferred to a cryogenic vial, and stored in a freezer at −75+15° C. prior to analysis.
Blood samples were collected at 0.083, 0.25, 0.5, 1, 2, 4, 8, and 24 h following the initial dosing (0 h).
The concentration of Compound A in the blood plasma was determined through liquid chromatography-mass spectrometry (LC-MS). The experiments were conducted on a Shimadzu HPLC(DGU-20A5R; LC-30AD; SIL-30AC; Rack Changer II; CTO-30A; and CBM-20A) and AB API 5500 LC/MS/MS instrument with an Agilent Poroshell EC-C18 4 μm (50×2.1 mm) column. A gradient of 95% water (0.1% formic acid)/95% acetonitrile (0.1% formic acid) was used as the mobile phase. The sample injection volume was 4 μL, and the flow rate was 0.6 mL/min. The gathered data were used for pharmacokinetic calculations using T1/2, CO, AUClast, AUCinf, MRTinf, Cl, Vss, and Number of Points for Regression as parameters.
The desired serial concentrations of working solutions were achieved by diluting stock solution of analyte with 50% acetonitrile in water solution. 5 μL of working solutions (5, 10, 20, 50, 100, 500, 1000, 5000, 10000 ng/ml) were added to 50 µL of the blank Beagle Dogs plasma to achieve calibration standards of 0.5~1000 ng/ml (0.5, 1, 2, 5, 10, 50, 100, 500, 1000 ng/ml) in a total volume of 55 μL. Five quality control samples at 1 ng/ml, 2 ng/mL, 5 ng/ml, 50 ng/mL and 800 ng/mL for plasma were prepared independently of those used for the calibration curves. These QC samples were prepared on the day of analysis in the same way as calibration standards.
55 μL standards, 55 μL QC samples and 55 μL unknown samples (50 μL plasma with 5 μL blank solution) were added to 200 μL of acetonitrile containing IS mixture (verapamil) for precipitating protein respectively. Then the samples were vortexed for 30 s. After centrifugation at 4° C., 3900 rpm for 15 min, the supernatant was diluted 3 times with water. 4 μL of diluted supernatant was injected into the LC/MS/MS system for quantitative analysis.

[3] = IV 1 mg/kg, HPBCD formulation, individual animals, 1 mg/kg
[4] = IV 1 mg/kg, HPBCD formulation, mean
[5] = beagle, dog, plasma, iv, 1 mg/kg, IV 1 mg/kg, HPBCD formulation, individual animals, read-out: Plasma concentration
[6] = beagle, dog, plasma, iv, 1 mg/kg, IV 1 mg/kg, HPBCD formulation, mean, read-out: Average plasma concentration
[7] = beagle, dog, plasma, iv, 1 mg/kg, IV 1 mg/kg, HPBCD formulation, mean

Cn1cc(-c2ccccc2)c(-c2cn(C)c(=O)c3[nH]c(-c4cnn(C(F)(F)F)c4)cc23)cc1=O [Compound A, 6-methyl-4-(1-methyl-2-oxo-5-phenyl-1,2-dihydropyridin-4-yl)-2-(1-(trifluoromethyl)-1H-pyrazol-4-yl)-1,6-dihydro-7H-pyrrolo[2,3-c]pyridin-7-one]
Hydroxyproline Levels, Mean ([1]; Bleo + Compound A (1 mg/kg) OG QOD from D7): 0.05281 | Hydroxyproline Levels, Mean ([1]; Bleo + Compound A (3 mg/kg) OG QOD from D7): 0.05418 | Hydroxyproline Levels, Mean ([1]; Bleo + Compound A (10 mg/kg) OG QOD from D7): 0.04627 | Hydroxyproline levels relative to Group 2 ([1]; Day 21, 1 mg/kg and 3 mg/kg): reduced levels of hydroxyproline | Hydroxyproline levels, lower than IPF control group (Bleo+Saline) ([1]; Day 21, 10 mg/kg): about 60.4% | clinical observations, HPBCD vs propylene glycol formulation ([2]; IV): fewer clinical observations | AUClast [2, 3]: 4409 ng·h/mL and 1577 ng·h/mL and 1732 ng·h/mL | AUClast/D [2, 3]: 4409 (ng · h/mL)/(mg/kg) and 1577 (ng · h/mL)/(mg/kg) and 1732 (ng · h/mL)/(mg/kg) | AUClnf [2, 3]: 4854 ng·h/mL and 1674 ng·h/mL and 2083 ng·h/mL | AUC—%Extrap—obs [2, 3]: 9.17% and 5.83% and 16.8% | C0 [2, 3]: 476 ng/mL and 410 ng/mL | CI_obs [2, 3]: 3.43 mL/min/kg and 9.95 mL/min/kg and 8.00 mL/min/kg | MRTlnf—obs [2, 3]: 9.30 h and 6.26 h and 11.8 h | T1/2 [2, 3]: 6.45 h and 10.1 h | Vss—obs [2, 3]: 1.91 L/kg and 3.74 L/kg and 5.67 L/kg | AUClast/D [2, 4]: 2573 (ng · h/mL)/(mg/kg) | AUC—%Extrap—obs [2, 4]: 10.6% | CI_obs [2, 4]: 7.13 mL/min/kg | MRTlnf—obs [2, 4]: 9.1 h | concentration at 0.083 h [2, 5]: 479 ng/mL | concentration at 0.083 h [2, 6]: 446 ng/mL | concentration at 0.25 h [2, 5]: 540 ng/mL | concentration at 0.25 h [2, 6]: 450 ng/mL | concentration at 0.5 h [2, 5]: 405 ng/mL | concentration at 0.5 h [2, 6]: 328 ng/mL | concentration at 1 h [2, 5]: 331 ng/mL | concentration at 1 h [2, 6]: 269 ng/mL | concentration at 2 h [2, 5]: 323 ng/mL | concentration at 2 h [2, 6]: 232 ng/mL | concentration at 4 h ([2]; beagle, dog, plasma, iv, 1 mg/kg, IV 1 mg/kg, HPBCD formulation, 4 h, mean): 176 ng/mL | concentration at 8 h ([2]; beagle, dog, plasma, iv, 1 mg/kg, IV 1 mg/kg, HPBCD formulation, 8 h, mean): 100 ng/mL | concentration at 24 h ([2]; beagle, dog, plasma, iv, 1 mg/kg, IV 1 mg/kg, HPBCD formulation, 24 h, mean): 26 ng/mL | half-life ([2]; beagle, dog, plasma, iv, 1 mg/kg, IV 1 mg/kg, HPBCD formulation, individual animals): 427 min | C0 ([2]; beagle, dog, plasma, iv, 1 mg/kg, IV 1 mg/kg, HPBCD formulation, individual animals, read-out: C0): 479 ng/mL | AUC [2, 7]: 2870 ng·h/mL | AUC(0-t) [2, 7]: 2570 ng·h/mL | half-life [2, 7]: 474 min | C0 ([2]; beagle, dog, plasma, iv, 1 mg/kg, IV 1 mg/kg, HPBCD formulation, mean, read-out: C0): 455 ng/mL | Vd ([2]; beagle, dog, plasma, iv, 1 mg/kg, IV 1 mg/kg, HPBCD formulation, mean, read-out: Vss—obs): 3.77 L/kg

— US20260217701A1, “SELECTIVE BET INHIBITORS AND USES THEREOF” (Tay Therapeutics Limited, priority 2022, published 2026)
